Measured values reported in US10174067B2, “Type of cytidine derivative and application thereof” (priority 2014, dated 2019).
Marks after values point to notes of the source that are not given here.

Columns and labels:
[1] = tested on: ICR mice; assay: in vivo; settings: female ICR mice; single-dose ip
Procedure, shortened: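 Female SPF ICR mice received a single ip dose in ethanol/Cremophor EL/saline (5:5:90), with dose lowered after deaths and raised otherwise. MTD defined as dose causing no death, no >10% weight loss versus Day 0 and no significant side effects; daily weights and twice-daily clinical observation over 7-14 days.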

[2] = Procedure, shortened: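 Female SPF Balb/c nude mice bearing subcutaneous HCT-116 xenografts (3×10^6 cells, right hind limb), grouped at 60–150 mm^3, 6 per group; vehicle ethanol/Cremophor EL/saline 5:5:90. Body weight thrice weekly; tumours excised and weighed at sacrifice; Mean±SEM, unpaired t-test, P<0.05.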
[3] = tested on: HCT-116 colon cancer xenografts; assay: Tumor growth inhibition of HCT-116 colon cancer xenografts in tumor-bearing nude mice (tumor volume, TGI %, RTV, T/C %); type: in vivo, Balb/c Nude mice; settings: G10-G16 groups, single IP 400 mg/kg
Procedure, shortened: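 Nude mice inoculated with HCT-116 cells (about 3×10^7 cells/mL in serum-free medium). Tumor diameter measured three times weekly and volume computed as V=3/4π(D/2)^3. Activity expressed as TGI (%) and T/C (%) from relative tumor volume Vt/V0, with V0 taken at grouping and dosing start; P<0.05 significant.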

[4] = Day 1, G10-G16 groups, single IP 400 mg/kg, Mean±SEM
[5] = Day 2, G10-G16 groups, single IP 400 mg/kg, Mean±SEM
[6] = Day 4, G10-G16 groups, single IP 400 mg/kg, Mean±SEM
[7] = Day 7, G10-G16 groups, single IP 400 mg/kg, Mean±SEM
[8] = Day 9, G10-G16 groups, single IP 400 mg/kg, Mean±SEM
[9] = Day 11, G10-G16 groups, single IP 400 mg/kg, Mean±SEM
[10] = Day 14, G10-G16 groups, single IP 400 mg/kg, Mean±SEM
[11] = Day 16, G10-G16 groups, single IP 400 mg/kg, Mean±SEM
[12] = Day 18, G10-G16 groups, single IP 400 mg/kg, Mean±SEM
[13] = Day 21, G10-G16 groups, single IP 400 mg/kg, Mean±SEM
[14] = Day 23, G10-G16 groups, single IP 400 mg/kg, Mean±SEM
[15] = Day 25, G10-G16 groups, single IP 400 mg/kg, Mean±SEM
[16] = Day 28, G10-G16 groups, single IP 400 mg/kg, Mean±SEM
[17] = Day 30, G10-G16 groups, single IP 400 mg/kg, Mean±SEM

CCCCOC(=O)Nc1nc(=O)n(C2OC(COC(=O)COc3nc(Cl)c(Cl)cc3Cl)C(O)C2(F)F)cc1I (centres unmarked) [Compound G11]
dose that could be tolerated (maximum tolerated dose, MTD) [1]: 400 mg/kg | Weight change rate, Day 0 ([2]; Day 0, G10-G16 groups, single IP 400 mg/kg): 0.00% | Weight of mice, Day 0 ([2]; Day 0, G10-G16 groups, single IP 400 mg/kg, Mean±SEM): 20.48 ± 0.27 g | Weight change rate, Day 1 [2, 4]: −5.41 ± 1.27 % | Weight of mice, Day 1 [2, 4]: 19.38 ± 0.43 g | Weight change rate, Day 2 [2, 5]: −6.03 ± 0.57 % | Weight of mice, Day 2 [2, 5]: 19.25 ± 0.31 g | Weight change rate, Day 4 [2, 6]: −2.00 ± 0.76% | Weight of mice, Day 4 [2, 6]: 20.07 ± 0.18 g | Weight change rate, Day 7 [2, 7]: −3.58 ± 1.49% | Weight of mice, Day 7 [2, 7]: 19.73 ± 0.17 g | Weight change rate, Day 9 [2, 8]: −0.18 ± 1.13% | Weight of mice, Day 9 [2, 8]: 20.43 ± 0.14 g | Weight change rate, Day 11 [2, 9]: 1.05 ± 1.44% | Weight of mice, Day 11 [2, 9]: 20.68 ± 0.20 g | Weight change rate, Day 14 [2, 10]: −1.81 ± 2.2% | Weight of mice, Day 14 [2, 10]: 20.10 ± 0.40 g | Weight change rate, Day 16 [2, 11]: 0.01 ± 2.83% | Weight of mice, Day 16 [2, 11]: 20.47 ± 0.49 g | Weight change rate, Day 18 [2, 12]: 1.66 ± 3.62% | Weight of mice, Day 18 [2, 12]: 20.80 ± 0.65 g | Weight change rate, Day 21 [2, 13]: −0.53 ± 3.44% | Weight of mice, Day 21 [2, 13]: 20.35 ± 0.59 g | Day 22 Mortality ([2]; Day 22, single IP dose (mg/kg)): 0% | Weight change rate, Day 23 [2, 14]: −1.07 ± 3.55% | Weight of mice, Day 23 [2, 14]: 20.23 ± 0.57 g | Weight change rate, Day 25 [2, 15]: −0.06 ± 3.97% | Weight of mice, Day 25 [2, 15]: 20.43 ± 0.63 g | Weight change rate, Day 28 [2, 16]: −1.11 ± 3.89% | Weight of mice, Day 28 [2, 16]: 20.22 ± 0.61 g | Weight change rate, Day 30 [2, 17]: 3.01 ± 7.70% | Weight of mice, Day 30 [2, 17]: 21.00 ± 1.02 g | clinical symptoms ([2]; after single IP dose, compared with model control group): no significant differences in clinical symptoms | Day 0 (RTV) ([3]; Day 0): 1.00 | Tumor volume, Day 0 ([3]; Day 0, Mean±SEM): 71.46 ± 18.69 mm^3 | Day 1 (TGI %) ([3]; Day 1): 58.06% | Day 1 (RTV) ([3]; Day 1, Mean±SEM): 1.00 ± 0.13 | Tumor volume, Day 1 ([3]; Day 1, Mean±SEM): 75.71 ± 22.24** mm^3 | Day 2 (TGI %) ([3]; Day 2): 58.57% | Day 2 (RTV) ([3]; Day 2, Mean±SEM): 1.14 ± 0.16 | Tumor volume, Day 2 ([3]; Day 2, Mean±SEM): 91.91 ± 29.38** mm^3 | Day 4 (TGI %) ([3]; Day 4): 56.33% | Day 4 (RTV) ([3]; Day 4, Mean±SEM): 1.56 ± 0.24 | Tumor volume, Day 4 ([3]; Day 4, Mean±SEM): 129.69 ± 43.49** mm^3 | Day 7 (TGI %) ([3]; Day 7): 53.56% | Day 7 (RTV) ([3]; Day 7, Mean±SEM): 2.68 ± 0.29 | Tumor volume, Day 7 ([3]; Day 7, Mean±SEM): 200.84 ± 57.86* mm^3 | Day 9 (TGI %) ([3]; Day 9): 35.19% | Day 9 (RTV) ([3]; Day 9, Mean±SEM): 5.21 ± 0.68 | Tumor volume, Day 9 ([3]; Day 9, Mean±SEM): 382.62 ± 103.38 mm^3 | Day 11 (TGI %) ([3]; Day 11): 49.22% | Day 11 (RTV) ([3]; Day 11, Mean±SEM): 6.61 ± 0.62 | Tumor volume, Day 11 ([3]; Day 11, Mean±SEM): 495.68 ± 140.53* mm^3 | Day 14 (TGI %) ([3]; Day 14): 41.98% | Day 14 (RTV) ([3]; Day 14, Mean±SEM): 12.40 ± 1.29 | Tumor volume, Day 14 ([3]; Day 14, Mean±SEM): 835.57 ± 194.90* mm^3 | Day 16 (TGI %) ([3]; Day 16): 41.43% | Day 16 (RTV) ([3]; Day 16, Mean±SEM): 16.20 ± 1.72 | Tumor volume, Day 16 ([3]; Day 16, Mean±SEM): 1060.78 ± 231.28* mm^3 | Day 18 (TGI %) ([3]; Day 18): 36.63% | Day 18 (RTV) ([3]; Day 18, Mean±SEM): 20.33 ± 2.96 | Tumor volume, Day 18 ([3]; Day 18, Mean±SEM): 1266.27 ± 242.09* mm^3 | Day 21 (TGI %) ([3]; Day 21): 32.98% | Day 21 (RTV) ([3]; Day 21, Mean±SEM): 26.21 ± 3.72 | Tumor volume, Day 21 ([3]; Day 21, Mean±SEM): 1638.64 ± 312.92 mm^3 | Day 23 (TGI %) ([3]; Day 23): 28.91% | Day 23 (RTV) ([3]; Day 23, Mean±SEM): 27.62 ± 4.39 | Tumor volume, Day 23 ([3]; Day 23, Mean±SEM): 1678.97 ± 300.64 mm^3 | Day 25 (TGI %) ([3]; Day 25): 28.29% | Day 25 (RTV) ([3]; Day 25, Mean±SEM): 30.73 ± 4.91 | Tumor volume, Day 25 ([3]; Day 25, Mean±SEM): 1851.89 ± 322.59 mm^3 | Day 28 (TGI %) ([3]; Day 28): 20.94% | Day 28 (RTV) ([3]; Day 28, Mean±SEM): 36.20 ± 6.28 | Tumor volume, Day 28 ([3]; Day 28, Mean±SEM): 2126.03 ± 345.51 mm^3 | Day 30 (TGI %) ([3]; Day 30): 39.43% | Day 30 (RTV) ([3]; Day 30, Mean±SEM): 56.36 ± 6.99 | Tumor volume, Day 30 ([3]; Day 30, Mean±SEM): 1699.56 ± 350.73 mm^3
